Test results as given in article PMC9578143, “Small-Molecule Ebselen Binds to YTHDF Proteins Interfering with the Recognition of N^6-Methyladenosine-Modified RNAs” (ACS Pharmacology & Translational Science, 2022).
pEC50: −log10 of the molar value. “Also recorded” adds a separate entry of the source.

Key:
YTHDF1 domain = molecular target: T1, YTHDF1 domain (Homo sapiens, UniProt Q9BYJ9); test: Dynamic mass redistribution (DMR), label-free; settings: immobilized YTHDF1 domain, binding at equilibrium
T1 construct: The human YTHDF1 YTH domain (amino acids 365–554, PDB: 4RCJ); host or cells: E. coli BL21(DE3)
T1 sequence (Q9BYJ9 365-554): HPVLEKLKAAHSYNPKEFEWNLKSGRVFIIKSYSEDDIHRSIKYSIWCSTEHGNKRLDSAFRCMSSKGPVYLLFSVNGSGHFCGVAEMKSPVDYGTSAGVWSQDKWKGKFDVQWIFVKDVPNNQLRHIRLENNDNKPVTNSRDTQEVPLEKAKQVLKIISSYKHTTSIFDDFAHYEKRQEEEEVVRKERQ
Experimental: The protein was immobilized in a final volume of 15 μL/well of a 50 μg/mL solution in 20 mM sodium acetate buffer, pH 6, onto the surface of label-free microplates by amine-coupling chemistry. Different concentrations of ebselen (300 nM to 50 μM) were added to the plate and the mass of the molecular complex was measured every minute for 1 h. […]
probe with the YTH domain of YTHDF1 calculated with the DMR. rYTH was immobilized to the wells with amino-coupled chemistry and different concentrations of RNA were added to the plate.
Measurements were performed before adding the RNA, in order to define a baseline, and after the addition. Final response (pm) was obtained by subtracting to the last measurement the baseline.
Signal for each well was obtained by subtracting the signal of a reference area with the protein coated to an uncoated one. Data were fitted according to a four-parameter nonlinear regression […]
(§1) (1 picture or pasted object on this page, not shown here)

[1] = tested on: m6A levels in poly(A) purified mRNA of PC-3 cells; test: m6A level by 2D thin-layer chromatography; assay type: cell-based, human; settings: 24 h time frame
Experimental: 100 ng of the poly(A) purified RNA was used as the input. Processed samples were analyzed on glass-backed PEI-cellulose plates (MerckMillipore) as described previously. Plates were exposed to a storage phosphor screen below saturation and processed on a Typhoon NIR laser scanner (Cytiva). Quantification of individual nucleotides was done with ImageJ. The relative amount of m6A was calculated as a percent of the total A (sum of both A and m6A spot intensity).

[2] = tested on: YTHDF1-3, ALKBH5 and METTL3 in PC-3 cells; test: Western blot of the epitranscriptome apparatus; assay type: cell-based, human; settings: PC-3 cells, 24, 48 and 72 h, 10, 25, 50 μM; listed as ebselen
Experimental: Supplementary Figure 4. Protein level of the epitranscriptome apparatus and m6A level in PC-3 cells. (A) Representative western blot of YTHDF1-3, ALKBH5 and METTL3 in PC-3 cells after 24, 48 and 72 hours of ebselen treatment at three doses, 10, 25, 50 µM. (B) Quantification of the relative changes of YTHDF1-3, ALKBH5 and METTL3 in PC-3 cells after 24, 48 and 72 hours of ebselen treatment at three doses, 10, 25, 50 µM. […] Three biological replicates were performed. (C) Quantitative real-time PCR of YTHDF1-3, ALKBH5 and METTL3 in PC-3 cells after 24 hours of ebselen treatment at 10 µM.
Supplementary Figure 5. Caption: 2F o-Fc map (blue) is contoured at 1s for Ebselen and Cys412 side chain. The selenium anomalous map is contoured at 3.5σ and shown in orange.
as §1

[3] = tested on: m6A-mRNAs (CREBBP, YTHDF2, GATA2, HNRNPF) in PC-3 cells; test: m6A mRNA stability measurement with actinomycin D; assay type: cell-based, human; settings: 4 h co-treatment with actinomycin D, versus DMSO, listed as ebselen
Experimental: PC-3 cells were plated on a six-well dish. At 70–80% confluency, cells were treated with […] actinomycin D or vehicle (DMSO) to inhibit transcription in combination with 50 μM ebselen for 4 h before collection. As a control, cells were treated with actinomycin D or vehicle (DMSO) for 4 h. Total RNA was isolated from cells using TRIzol according to the manufacturer’s instructions. For each condition, the same amount of total RNA was reverse-transcribed to cDNA (2 μg) using the SuperScript IV First-Strand kit. Oligo-dT primers were used during the cDNA synthesis step. This allowed us to selectively convert to cDNA the amount of intact RNA still present in cells upon actinomycin D treatment while avoiding the conversion of fragmented RNA to cDNA. qRT-PCR experiments were performed in duplicates and normalized on a stable mRNA, GAPDH.

O=c1c2ccccc2[se]n1-c1ccccc1 [Compound 1, 2-phenyl-1,2-benzisoselenazol-3(2H)-one]
pEC50 (YTHDF1 domain): 5.49
Overall m6A methylation level (in words) [1]: no significant changes
Expression level of the proteins of the epitranscriptome apparatus (in words) [2]: No changes were observed
Stability of methylated mRNAs (in words) [3]: increase in mRNA stability; also recorded: increased the stability of methylated genes
